From ChEMBL document CHEMBL3763069, “Synthesis of fluorinated carbazoles via C-H arylation catalyzed by Pd/Cu bimetal system and their antibacterial activities” (2016)
In brackets after ≈: the same amount, converted by molar mass.

Key:
Format in all cases: functional
[1] = tested on: Bacillus subtilis; experiment: Antibacterial activity against Bacillus subtilis incubated for 20 hrs by microbroth dilution method
[2] = tested on: Staphylococcus aureus; experiment: Antibacterial activity against Staphylococcus aureus incubated for 20 hrs by microbroth dilution method
[3] = tested on: Staphylococcus aureus; experiment: Antibacterial activity against methicillin-resistant Staphylococcus aureus incubated for 20 hrs by microbroth dilution method
[4] = tested on: Escherichia coli; experiment: Antibacterial activity against Escherichia coli incubated for 20 hrs by microbroth dilution method

SMILES	MIC [1]	MIC [2]	MIC [3]	MIC [4]
Fc1ccc2[nH]c3c(F)cc(F)c(F)c3c2c1	3.12 µg/mL (≈ 13.1 µM)	1.56 µg/mL (≈ 6.52 µM)	6.25 µg/mL (≈ 26.1 µM)	
Cc1ccc(F)c2c1[nH]c1cc(C(F)(F)F)ccc12	3.12 µg/mL (≈ 11.7 µM)	1.56 µg/mL (≈ 5.84 µM)	3.12 µg/mL (≈ 11.7 µM)	
Fc1ccc2c(c1)[nH]c1cc(F)cc(F)c12	3.12 µg/mL (≈ 14.1 µM)	1.56 µg/mL (≈ 7.05 µM)	12.5 µg/mL (≈ 56.5 µM)	25 µg/mL (≈ 113 µM)
Fc1cc(F)c2c(c1)[nH]c1ccc(F)cc12	3.12 µg/mL (≈ 14.1 µM)	1.56 µg/mL (≈ 7.05 µM)	3.12 µg/mL (≈ 14.1 µM)	12.5 µg/mL (≈ 56.5 µM)
Fc1cc(F)c2[nH]c3ccccc3c2c1F	6.25 µg/mL (≈ 28.3 µM)	6.25 µg/mL (≈ 28.3 µM)	12.5 µg/mL (≈ 56.5 µM)	
Fc1ccc2c(c1)[nH]c1c(F)cc(F)c(F)c12	3.12 µg/mL (≈ 13.1 µM)	3.12 µg/mL (≈ 13.1 µM)	6.25 µg/mL (≈ 26.1 µM)	
Fc1cc(F)c2c(c1)[nH]c1cc(C(F)(F)F)ccc12	0.78 µg/mL (≈ 2.88 µM)	0.39 µg/mL (≈ 1.44 µM)	3.12 µg/mL (≈ 11.5 µM)	
Fc1cc(F)c2[nH]c3cc(C(F)(F)F)ccc3c2c1F	0.78 µg/mL (≈ 2.7 µM)	0.78 µg/mL (≈ 2.7 µM)	3.12 µg/mL (≈ 10.8 µM)	
CCc1ccc2[nH]c3c(C)ccc(F)c3c2c1	3.12 µg/mL (≈ 13.7 µM)	3.12 µg/mL (≈ 13.7 µM)	3.12 µg/mL (≈ 13.7 µM)	
Cc1ccc2c(c1)[nH]c1cc(F)cc(F)c12	3.12 µg/mL (≈ 14.4 µM)	3.12 µg/mL (≈ 14.4 µM)	3.12 µg/mL (≈ 14.4 µM)	
Cc1ccc2[nH]c3c(C)ccc(F)c3c2c1	6.25 µg/mL (≈ 29.3 µM)	6.25 µg/mL (≈ 29.3 µM)	6.25 µg/mL (≈ 29.3 µM)	
Cc1ccc2c(c1)[nH]c1c(F)cc(F)c(F)c12	3.12 µg/mL (≈ 13.3 µM)	6.25 µg/mL (≈ 26.6 µM)	6.25 µg/mL (≈ 26.6 µM)	
Cc1ccc2[nH]c3c(F)cc(F)c(F)c3c2c1	3.12 µg/mL (≈ 13.3 µM)	6.25 µg/mL (≈ 26.6 µM)	6.25 µg/mL (≈ 26.6 µM)	
CCc1ccc2[nH]c3cc(F)cc(F)c3c2c1	3.12 µg/mL (≈ 13.5 µM)	1.56 µg/mL (≈ 6.75 µM)	3.12 µg/mL (≈ 13.5 µM)	
C[C@@H](O)[C@H]1C(=O)N2C(C(=O)O)=C(S[C@@H]3CN[C@H](C(=O)N(C)C)C3)[C@H](C)[C@H]12 [MEROPENEM]	3.12 µg/mL (≈ 8.15 µM)	0.78 µg/mL (≈ 2.03 µM)	0.78 µg/mL (≈ 2.03 µM)	0.05 µg/mL (≈ 0.13 µM)
CN[C@@H]1[C@H](O[C@H]2[C@H](O[C@H]3[C@H](O)[C@@H](O)[C@H](N=C(N)N)[C@@H](O)[C@@H]3N=C(N)N)O[C@@H](C)[C@]2(O)C=O)O[C@@H](CO)[C@H](O)[C@H]1O [STREPTOMYCIN]	3.21 µg/mL (≈ 5.53 µM)	3.12 µg/mL (≈ 5.37 µM)	3.12 µg/mL (≈ 5.37 µM)	3.12 µg/mL (≈ 5.37 µM)
Cc1ccc2[nH]c3cc(F)cc(F)c3c2c1	3.12 µg/mL (≈ 14.4 µM)	100 µg/mL (≈ 460 µM)	3.12 µg/mL (≈ 14.4 µM)	
Cc1ccc(F)c2c1[nH]c1ccccc12	6.25 µg/mL (≈ 31.4 µM)	50 µg/mL (≈ 251 µM)	12.5 µg/mL (≈ 62.7 µM)	
CC1(C)S[C@@H]2[C@H](NC(=O)[C@H](N)c3ccccc3)C(=O)N2[C@H]1C(=O)O [AMPICILLIN]	< 0.2 µg/mL	0.2 µg/mL (≈ 0.572 µM)		3.12 µg/mL (≈ 8.94 µM)
Cc1ccc(F)c2c1[nH]c1cc(F)ccc12	6.25 µg/mL (≈ 28.8 µM)	50 µg/mL (≈ 230 µM)	6.26 µg/mL (≈ 28.8 µM)	
Fc1cc(F)c2c(c1)[nH]c1ccccc12	6.25 µg/mL (≈ 30.8 µM)	25 µg/mL (≈ 123 µM)	12.5 µg/mL (≈ 61.5 µM)	25 µg/mL (≈ 123 µM)
CCc1ccc2[nH]c3c(F)cc(F)c(F)c3c2c1	3.12 µg/mL (≈ 12.5 µM)	3.12 µg/mL (≈ 12.5 µM)	3.12 µg/mL (≈ 12.5 µM)	
